Assay results as given in patent US10717716B2, “1,3,4-oxadiazole derivative compounds as histone deacetylase 6 inhibitor, and the pharmaceutical composition comprising the same” (Chong Kun Dang Pharmaceutical Corp., priority 2015, dated 2020).

Molecular target: T1, human recombinant HDAC6 (Homo sapiens, UniProt Q9UBN7)
T1 construct: purchased Calbiochem 382180
T1 sequence (Q9UBN7 1-1215): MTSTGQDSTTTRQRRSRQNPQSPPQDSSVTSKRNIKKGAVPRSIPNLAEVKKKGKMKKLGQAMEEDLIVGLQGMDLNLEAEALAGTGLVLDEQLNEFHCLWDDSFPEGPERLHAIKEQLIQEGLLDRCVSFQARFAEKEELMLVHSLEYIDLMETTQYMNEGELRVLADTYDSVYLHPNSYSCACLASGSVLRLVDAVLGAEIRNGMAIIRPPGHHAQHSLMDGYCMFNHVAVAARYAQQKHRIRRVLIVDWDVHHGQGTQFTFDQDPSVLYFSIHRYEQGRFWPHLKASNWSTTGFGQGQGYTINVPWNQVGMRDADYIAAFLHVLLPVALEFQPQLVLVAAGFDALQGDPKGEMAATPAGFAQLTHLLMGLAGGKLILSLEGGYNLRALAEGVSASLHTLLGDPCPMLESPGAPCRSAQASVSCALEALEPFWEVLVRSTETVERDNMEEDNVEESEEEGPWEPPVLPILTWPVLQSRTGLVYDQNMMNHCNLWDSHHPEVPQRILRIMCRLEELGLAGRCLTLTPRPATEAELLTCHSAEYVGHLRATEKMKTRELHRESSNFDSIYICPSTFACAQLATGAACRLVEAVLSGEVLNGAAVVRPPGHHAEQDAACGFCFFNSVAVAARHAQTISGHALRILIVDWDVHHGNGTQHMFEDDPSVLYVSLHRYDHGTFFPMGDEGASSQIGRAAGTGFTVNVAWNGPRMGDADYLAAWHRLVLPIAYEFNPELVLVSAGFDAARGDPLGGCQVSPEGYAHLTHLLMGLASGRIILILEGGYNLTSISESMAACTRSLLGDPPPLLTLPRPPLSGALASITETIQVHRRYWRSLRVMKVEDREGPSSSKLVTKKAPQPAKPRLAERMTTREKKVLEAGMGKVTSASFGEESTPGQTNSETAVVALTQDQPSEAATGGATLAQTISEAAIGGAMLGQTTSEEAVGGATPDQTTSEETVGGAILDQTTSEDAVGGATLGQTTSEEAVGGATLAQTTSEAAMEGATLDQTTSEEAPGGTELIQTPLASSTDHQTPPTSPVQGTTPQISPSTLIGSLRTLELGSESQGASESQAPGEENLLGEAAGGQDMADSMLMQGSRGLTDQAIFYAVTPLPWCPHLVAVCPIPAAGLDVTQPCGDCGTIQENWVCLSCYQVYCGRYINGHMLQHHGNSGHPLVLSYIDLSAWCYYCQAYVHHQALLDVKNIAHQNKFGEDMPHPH
Test: HDAC6 enzyme activity inhibition assay (HDAC Fluorimetric Drug Discovery Kit)
Assay type: biochemical
Details: for HDAC6 selectivity (fold): HDAC6 over HDAC1; for IC50: human recombinant HDAC6, same protocol as HDAC1, read-out: HDAC6
In short: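 Human recombinant HDAC1 or HDAC6 (0.3 μg) reacted with 10 μM Fluor de Lys-SIRT1 substrate and 5-fold compound dilutions for 60 min at 30 °C. Developer II added for 30 min, fluorescence read at Ex 360/Em 460; IC50 calculated from the readings.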

Compound	HDAC6 selectivity (fold)	IC50
Cc1ccc(N(Cc2ccc(-c3nnc(C(F)F)o3)cn2)C(=O)N2CCOCC2)c(F)c1 [Compound 21855, N-((5-(5-(difluoromethyl)-1,3,4-oxadiazol-2-yl)pyridin-2-yl)methyl)-N-(2-fluoro-4-methylphenyl)morpholine-4-carboxamide]	248 fold	40 nM
Cc1ccc(N(Cc2ccc(-c3nnc(C(F)F)o3)cc2F)C(=O)N2CCOCC2)c(F)c1 [Compound 21856, N-(4-(5-(difluoromethyl)-1,3,4-oxadiazol-2-yl)-2-fluorobenzyl)-N-(2-fluoro-4-methylphenyl)morpholine-4-carboxamide]	105 fold	95 nM
CCN1CCN(C(=O)N(Cc2ccc(-c3nnc(C(F)F)o3)cc2F)c2ccc(Cl)cc2)CC1 [Compound 21881, N-(4-Chlorophenyl)-N-(4-(5-(difluoromethyl)-1,3,4-oxadiazol-2-yl)-2-fluorobenzyl)-4-ethylpiperazine-1-carboxamide]	204 fold	49 nM
CCN1CCN(C(=O)N(Cc2ccc(-c3nnc(C(F)F)o3)cn2)c2ccc(Cl)cc2)CC1 [Compound 21882, N-(4-Chlorophenyl)-N-((5-(5-(difluoromethyl)-1,3,4-oxadiazol-2-yl)pyridin-2-yl)methyl)-4-ethylpiperazine-1-carboxamide]	251 fold	40 nM
CCN1CCN(C(=O)N(Cc2ccc(-c3nnc(C(F)F)o3)cc2)c2cccc(F)c2)CC1 [Compound 21883, N-(4-(5-(Difluoromethyl)-1,3,4-oxadiazol-2-yl)benzyl)-4-ethyl-N-(3-fluorophenyl)piperazine-1-carboxamide]	268 fold	37 nM
CCN1CCN(C(=O)N(Cc2ccc(-c3nnc(C(F)F)o3)cc2F)c2cccc(F)c2)CC1 [Compound 21884, N-(4-(5-(Difluoromethyl)-1,3,4-oxadiazol-2-yl)-2-fluorobenzyl)-4-ethyl-N-(3-fluorophenyl)piperazine-1-carboxamide]	303 fold	33 nM
CCN1CCN(C(=O)N(Cc2ccc(-c3nnc(C(F)F)o3)cn2)c2cccc(F)c2)CC1 [Compound 21885, N-((5-(5-(Difluoromethyl)-1,3,4-oxadiazol-2-yl)pyridin-2-yl)methyl)-4-ethyl-N-(3-fluorophenyl)piperazine-1-carboxamide]	555 fold	18 nM
CCN1CCN(C(=O)N(Cc2ccc(-c3nnc(C(F)F)o3)cc2)c2ccc(F)cc2)CC1 [Compound 21886, N-(4-(5-(Difluoromethyl)-1,3,4-oxadiazol-2-yl)benzyl)-4-ethyl-N-(4-fluorophenyl)piperazine-1-carboxamide]	218 fold	46 nM
CCN1CCN(C(=O)N(Cc2ccc(-c3nnc(C(F)F)o3)cc2F)c2ccc(F)cc2)CC1 [Compound 21887, N-(4-(5-(Difluoromethyl)-1,3,4-oxadiazol-2-yl)-2-fluorobenzyl)-4-ethyl-N-(4-fluorophenyl)piperazine-1-carboxamide]	218 fold	46 nM
CCN1CCN(C(=O)N(Cc2ccc(-c3nnc(C(F)F)o3)cn2)c2ccc(F)cc2)CC1 [Compound 21888, N-((5-(5-(Difluoromethyl)-1,3,4-oxadiazol-2-yl)pyridin-2-yl)methyl)-4-ethyl-N-(4-fluorophenyl)piperazine-1-carboxamide]	388 fold	26 nM
CCN1CCN(C(=O)N(Cc2ccc(-c3nnc(C(F)F)o3)cc2)c2cccc(OC)c2)CC1 [Compound 21889, N-(4-(5-(Difluoromethyl)-1,3,4-oxadiazol-2-yl)benzyl)-4-ethyl-N-(3-methoxyphenyl)piperazine-1-carboxamide]	103 fold	98 nM
CCN1CCN(C(=O)N(Cc2ccc(-c3nnc(C(F)F)o3)cc2F)c2cccc(OC)c2)CC1 [Compound 21890, N-(4-(5-(Difluoromethyl)-1,3,4-oxadiazol-2-yl)-2-fluorobenzyl)-4-ethyl-N-(3-methoxyphenyl)piperazine-1-carboxamide]	185 fold	54 nM
CCN1CCN(C(=O)N(Cc2ccc(-c3nnc(C(F)F)o3)cn2)c2cccc(OC)c2)CC1 [Compound 21891, N-((5-(5-(Difluoromethyl)-1,3,4-oxadiazol-2-yl)pyridin-2-yl)methyl)-4-ethyl-N-(3-methoxyphenyl)piperazine-1-carboxamide]	174 fold	57 nM
CC(C)(C)CN1CCN(Cc2ccc(N(Cc3ccc(-c4nnc(C(F)F)o4)cc3F)C(=O)N3CCS(=O)(=O)CC3)cc2)CC1 [Compound 21895, N-(4-(5-(difluoromethyl)-1,3,4-oxadiazol-2-yl)-2-fluorobenzyl)-N-(4-((4-neopentylpiperazin-1-yl)methyl)phenyl)thiomorpholine-4-carboxamide 1,1-dioxide]	42 fold	236 nM
O=C(N1CCS(=O)(=O)CC1)N(Cc1ccc(-c2nnc(C(F)F)o2)cc1F)c1ccc(CN2CCN(Cc3ccccc3)CC2)cc1 [Compound 21900, N-(4-((4-benzylpiperazin-1-yl)methyl)phenyl)-N-(4-(5-(difluoromethyl)-1,3,4-oxadiazol-2-yl)-2-fluorobenzyl)thiomorpholine-4-carboxamide 1,1-dioxide]	53 fold	190 nM
CC(C)(F)CN1CCN(Cc2ccc(N(Cc3ccc(-c4nnc(C(F)F)o4)cc3F)C(=O)N3CCS(=O)(=O)CC3)cc2)CC1 [Compound 21901, N-(4-(5-(difluoromethyl)-1,3,4-oxadiazol-2-yl)-2-fluorobenzyl)-N-(4-((4-(2-fluoro-2-methylpropyl)piperazin-1-yl)methyl)phenyl)thiomorpholine-4-carboxamide 1,1-dioxide]	29 fold	349 nM
O=C(N1CCS(=O)(=O)CC1)N(Cc1ccc(-c2nnc(C(F)F)o2)cc1F)c1ccc(CN2CCN(CC(F)(F)F)CC2)cc1 [Compound 21902, N-(4-(5-(difluoromethyl)-1,3,4-oxadiazol-2-yl)-2-fluorobenzyl)-N-(4-((4-(2,2,2-trifluoroethyl)piperazin-1-yl)methyl)phenyl)thiomorpholine-4-carboxamide 1,1-dioxide]	25 fold	398 nM
O=C(N1CCOCC1)N(Cc1ccc(-c2nnc(C(F)F)o2)cc1F)C12CC3CC(CC(C3)C1)C2 [Compound 21910, N-((3s,5s,7s)-adamantan-1-yl)-N-(4-(5-(difluoromethyl)-1,3,4-oxadiazol-2-yl)-2-fluorobenzyl)morpholine-4-carboxamide]	21 fold	470 nM
O=C(N1CCS(=O)(=O)CC1)N(Cc1ccc(-c2nnc(C(F)F)o2)cc1F)c1ccc(CN2CC(F)(F)C2)cc1 [Compound 21914, N-(4-((3,3-difluoroazetidin-1-yl)methyl)phenyl)-N-(4-(5-(difluoromethyl)-1,3,4-oxadiazol-2-yl)-2-fluorobenzyl)thiomorpholine-4-carboxamide 1,1-dioxide]	63 fold	158 nM
